Reference: Sander's compilation of Henry's law constants

What was measured:
[1] = Henry solubility constant Hcp at 295 K (mol/(m3 Pa))
[2] = Henry solubility constant Hcp at 298.15 K (mol/(m3 Pa))
[3] = Henry solubility constant Hcp at 293 K (mol/(m3 Pa))
[4] = Henry solubility constant Hcp at 288 K (mol/(m3 Pa)); conditions: reference: Pividal et al. (1992)
[5] = Henry solubility constant Hcp at 296 K (mol/(m3 Pa))
[6] = Henry solubility constant Hcp at 303 K (mol/(m3 Pa))
[7] = Henry solubility constant Hcp at 278 K (mol/(m3 Pa))
[8] = Henry solubility constant Hcp at 310 K (mol/(m3 Pa))
[9] = reference: de Wolf and Lieder (1998)
[10] = reference: Warner et al. (1980)
[11] = reference: Miller and Stuart (2000)
[12] = reference: Bakierowska and Trzeszczyński (2003)
[13] = reference: Bierwagen and Keller (2001)
[14] = reference: Bissonette et al. (1990)
[15] = reference: Brown and Wasik (1974)
[16] = reference: Cooling et al. (1992)
[17] = reference: Görgényi et al. (2002)
[18] = reference: Hartkopf and Karger (1973)
[19] = reference: Keeley et al. (1988)
[20] = reference: Khalfaoui and Newsham (1994b)
[21] = reference: Lodge and Danso (2007)
[22] = reference: Mackay et al. (1979)
[23] = reference: Nielsen et al. (1994)
[24] = reference: Perlinger et al. (1993)
[25] = reference: Robbins et al. (1993)
[26] = reference: Sanemasa et al. (1981)
[27] = reference: Tsibul’skii et al. (1979)
[28] = reference: Turner et al. (1996)
[29] = reference: Vitenberg et al. (1975)
[30] = reference: Wasik and Tsang (1970)
[31] = reference: Yurteri et al. (1987)
[32] = reference: Ramachandran et al. (1996)
[33] = reference: O’Sullivan et al. (1996)

SMILES: Clc1cccc(Cl)c1 [1,3-dichlorobenzene]
- Henry solubility constant Hcp at 295 K [1, 9]: 0.0037
- Henry solubility constant Hcp ([2]; reference: Li et al. (2008)): 0.0029
- Henry solubility constant Hcp [2, 10]: 0.0038

SMILES: CC(C)O [2-propanol]
- Henry solubility constant Hcp ([2]; reference: Butler et al. (1935)): 1.2
- Henry solubility constant Hcp ([2]; reference: Kim et al. (2000)): 1.1
- Henry solubility constant Hcp ([2]; reference: Lin and Chou (2006)): 1.3
- Henry solubility constant Hcp ([2]; reference: Snider and Dawson (1985)): 1.2
- Henry solubility constant Hcp at 293 K ([3]; reference: Yu (1992)): 0.98
- Henry solubility constant Hcp at 288 K [4]: 1.4

SMILES: c1ccccc1 [benzene]
- Henry solubility constant Hcp at 296 K ([5]; reference: Anderson (1992)): 0.0018
- Henry solubility constant Hcp at 296 K [5, 11]: 0.0018
- Henry solubility constant Hcp at 295 K [1, 9]: 0.0022
- Henry solubility constant Hcp ([2]; reference: Alaee et al. (1996)): 0.0018
- Henry solubility constant Hcp ([2]; reference: Allen et al. (1998)): 0.0018
- Henry solubility constant Hcp [2, 12]: 0.0018
- Henry solubility constant Hcp [2, 13]: 0.0019
- Henry solubility constant Hcp [2, 14]: 0.0016
- Henry solubility constant Hcp [2, 15]: 0.0017
- Henry solubility constant Hcp [2, 16]: 0.0017
- Henry solubility constant Hcp ([2]; reference: Ervin et al. (1980)): 0.0012
- Henry solubility constant Hcp ([2]; reference: Ettre et al. (1993)): 0.0018
- Henry solubility constant Hcp ([2]; reference: Green and Frank (1979)): 0.0018
- Henry solubility constant Hcp [2, 17]: 0.0017
- Henry solubility constant Hcp [2, 18]: 0.0021
- Henry solubility constant Hcp [2, 19]: 0.0017
- Henry solubility constant Hcp [2, 20]: 0.0017
- Henry solubility constant Hcp ([2]; reference: Lau et al. (2010)): 0.0014
- Henry solubility constant Hcp ([2]; reference: Lei et al. (2004)): 0.0014
- Henry solubility constant Hcp ([2]; reference: Li et al. (2008)): 0.0018
- Henry solubility constant Hcp [2, 21]: 0.0025
- Henry solubility constant Hcp [2, 22]: 0.0018
- Henry solubility constant Hcp [2, 23]: 0.002
- Henry solubility constant Hcp ([2]; reference: Park et al. (1997)): 0.0014
- Henry solubility constant Hcp ([2]; reference: Peng and Wan (1997)): 0.0019
- Henry solubility constant Hcp ([2]; reference: Peng and Wan (1998)): 0.0022
- Henry solubility constant Hcp [2, 24]: 0.0017
- Henry solubility constant Hcp [2, 25]: 0.0018
- Henry solubility constant Hcp [2, 26]: 0.0017
- Henry solubility constant Hcp ([2]; reference: Sieg et al. (2009)): 0.0017
- Henry solubility constant Hcp [2, 27]: 0.0016
- Henry solubility constant Hcp ([2]; reference: Tsonopoulos and Wilson (1983)): 0.0018
- Henry solubility constant Hcp [2, 28]: 0.0016
- Henry solubility constant Hcp [2, 29]: 0.0018
- Henry solubility constant Hcp [2, 10]: 0.0018
- Henry solubility constant Hcp [2, 30]: 0.0016
- Henry solubility constant Hcp at 303 K ([6]; reference: Saylor et al. (1938)): 0.0015
- Henry solubility constant Hcp at 293 K ([3]; reference: Vitenberg et al. (1974)): 0.0012
- Henry solubility constant Hcp at 293 K ([3]; reference: Yu (1992)): 0.0019
- Henry solubility constant Hcp at 293 K [3, 31]: 0.0013

SMILES: Brc1ccccc1 [bromobenzene]
- Henry solubility constant Hcp at 295 K [1, 9]: 0.005
- Henry solubility constant Hcp ([2]; reference: Lau et al. (2010)): 0.0039

SMILES: Clc1ccccc1 [chlorobenzene]
- Henry solubility constant Hcp at 295 K [1, 9]: 0.0034
- Henry solubility constant Hcp [2, 14]: 0.0024
- Henry solubility constant Hcp [2, 16]: 0.003
- Henry solubility constant Hcp ([2]; reference: Ervin et al. (1980)): 0.0029
- Henry solubility constant Hcp ([2]; reference: Ettre et al. (1993)): 0.0031
- Henry solubility constant Hcp [2, 18]: 0.0028
- Henry solubility constant Hcp [2, 20]: 0.003
- Henry solubility constant Hcp ([2]; reference: Lau et al. (2010)): 0.0017
- Henry solubility constant Hcp ([2]; reference: Lei et al. (2004)): 0.0015
- Henry solubility constant Hcp ([2]; reference: Li et al. (2008)): 0.0024
- Henry solubility constant Hcp [2, 22]: 0.0026
- Henry solubility constant Hcp ([2]; reference: Park et al. (1997)): 0.0019
- Henry solubility constant Hcp [2, 32]: 0.0029
- Henry solubility constant Hcp [2, 10]: 0.0025
- Henry solubility constant Hcp at 293 K [3, 31]: 0.0031

SMILES: [CH3][Hg][Cl] [chloromethylmercury]
- Henry solubility constant Hcp at 295 K ([1]; reference: Talmi and Mesmer (1975)): 15
- Henry solubility constant Hcp ([2]; reference: Iverfeldt and Lindqvist (1982)): 22

SMILES: CCCCC(CC)COC(=O)CCCCC(=O)OCC(CC)CCCC (stereo not given) [di-(2-ethylhexyl)-adipate]
- Henry solubility constant Hcp at 295 K ([1]; reference: Felder et al. (1986)): 23

SMILES: CC(=O)OO [ethanoic peroxyacid]
- Henry solubility constant Hcp ([2]; reference: Lind and Kok (1994)): 6.5
- Henry solubility constant Hcp [2, 33]: 8.3
- Henry solubility constant Hcp at 278 K ([7]; reference: Sauer (1997)): 24

SMILES: CCOO [ethyl hydroperoxide]
- Henry solubility constant Hcp [2, 33]: 3.3
- Henry solubility constant Hcp at 278 K ([7]; reference: Sauer (1997)): 11

SMILES: [HH] [hydrogen]
- Henry solubility constant Hcp at 310 K ([8]; reference: Longo et al. (1970)): 7.2e-06
- Henry solubility constant Hcp at 310 K ([8]; reference: Power and Stegall (1970)): 7.2e-06
- Henry solubility constant Hcp ([2]; reference: Bohr and Bock (1891)): 7.5e-06
- Henry solubility constant Hcp ([2]; reference: Braun (1900)): 7.7e-06
- Henry solubility constant Hcp ([2]; reference: Bunsen (1855a)): 8.5e-06
- Henry solubility constant Hcp ([2]; reference: Crozier and Yamamoto (1974)): 7.7e-06
- Henry solubility constant Hcp ([2]; reference: Geffcken (1904)): 7.8e-06
- Henry solubility constant Hcp ([2]; reference: Gordon et al. (1977)): 7.7e-06
- Henry solubility constant Hcp ([2]; reference: Morrison and Billett (1952)): 7.8e-06
- Henry solubility constant Hcp ([2]; reference: Schmidt (1979)): 7.8e-06
- Henry solubility constant Hcp ([2]; reference: Timofejew (1890)): 7.8e-06
- Henry solubility constant Hcp ([2]; reference: Winkler (1891a)): 7.7e-06
- Henry solubility constant Hcp at 303 K ([6]; reference: Ruetschi and Amlie (1966)): 7.5e-06

SMILES: O=COO [methanoic peroxyacid]
- Henry solubility constant Hcp at 278 K ([7]; reference: Sauer (1997)): 29

SMILES: COO [methyl hydroperoxide]
- Henry solubility constant Hcp ([2]; reference: Li et al. (2004)): 2.5
- Henry solubility constant Hcp ([2]; reference: Lind and Kok (1994)): 3
- Henry solubility constant Hcp ([2]; reference: Magi et al. (1997)): > 6.9
- Henry solubility constant Hcp [2, 33]: 3.1
- Henry solubility constant Hcp at 278 K ([7]; reference: Sauer (1997)): 12

SMILES: Cc1ccccc1 [methylbenzene]
- Henry solubility constant Hcp at 310 K ([8]; reference: McIntosh and Heffron (2000)): 0.00085
- Henry solubility constant Hcp at 296 K ([5]; reference: Anderson (1992)): 0.0015
- Henry solubility constant Hcp at 296 K ([5]; reference: David et al. (2000)): 0.0015
- Henry solubility constant Hcp at 296 K [5, 11]: 0.0016
- Henry solubility constant Hcp at 295 K [1, 9]: 0.002
- Henry solubility constant Hcp ([2]; reference: Allen et al. (1998)): 0.0015
- Henry solubility constant Hcp [2, 12]: 0.0017
- Henry solubility constant Hcp [2, 13]: 0.0017
- Henry solubility constant Hcp [2, 14]: 0.0014
- Henry solubility constant Hcp ([2]; reference: Bobadilla et al. (2003)): 0.0021
- Henry solubility constant Hcp [2, 15]: 0.0016
- Henry solubility constant Hcp ([2]; reference: Ervin et al. (1980)): 0.0015
- Henry solubility constant Hcp ([2]; reference: Ettre et al. (1993)): 0.0015
- Henry solubility constant Hcp ([2]; reference: Garbarini and Lion (1985)): 0.0015
- Henry solubility constant Hcp [2, 17]: 0.0015
- Henry solubility constant Hcp [2, 18]: 0.002
- Henry solubility constant Hcp [2, 19]: 0.0016
- Henry solubility constant Hcp ([2]; reference: Kish et al. (2013)): 0.0015
- Henry solubility constant Hcp ([2]; reference: Kutsuna and Kaneyasu (2021)): 0.0015
- Henry solubility constant Hcp ([2]; reference: Lau et al. (2010)): 0.0013
- Henry solubility constant Hcp ([2]; reference: Lee et al. (2013)): 0.0017
- Henry solubility constant Hcp ([2]; reference: Lei et al. (2004)): 0.0014
- Henry solubility constant Hcp ([2]; reference: Li et al. (2008)): 0.0015
- Henry solubility constant Hcp ([2]; reference: Lin and Chou (2006)): 0.0015
- Henry solubility constant Hcp [2, 21]: 0.0014
- Henry solubility constant Hcp [2, 22]: 0.0015
- Henry solubility constant Hcp [2, 23]: 0.0016
- Henry solubility constant Hcp ([2]; reference: Park et al. (1997)): 0.0013
- Henry solubility constant Hcp ([2]; reference: Peng and Wan (1997)): 0.0017
- Henry solubility constant Hcp ([2]; reference: Peng and Wan (1998)): 0.0021
- Henry solubility constant Hcp [2, 24]: 0.0015
- Henry solubility constant Hcp [2, 32]: 0.0015
- Henry solubility constant Hcp [2, 25]: 0.0015
- Henry solubility constant Hcp [2, 26]: 0.0016
- Henry solubility constant Hcp ([2]; reference: Schoene and Steinhanses (1985)): 0.0012
- Henry solubility constant Hcp ([2]; reference: Sieg et al. (2009)): 0.0015
- Henry solubility constant Hcp [2, 27]: 0.0015
- Henry solubility constant Hcp [2, 28]: 0.0014
- Henry solubility constant Hcp ([2]; reference: Vane and Giroux (2000)): 0.0019
- Henry solubility constant Hcp [2, 29]: 0.0019
- Henry solubility constant Hcp [2, 10]: 0.0017
- Henry solubility constant Hcp [2, 30]: 0.0017
- Henry solubility constant Hcp at 293 K ([3]; reference: Yu (1992)): 0.0037
- Henry solubility constant Hcp at 293 K [3, 31]: 0.0017

SMILES: O=C(Cl)C(Cl)(Cl)Cl [trichloroacetylchloride]
- Henry solubility constant Hcp ([2]; reference: George et al. (1994a)): 0.02
- Henry solubility constant Hcp ([2]; reference: Mirabel et al. (1996)): 0.02
- Henry solubility constant Hcp at 278 K ([7]; reference: De Bruyn et al. (1995a)): 0.02
